In ChEMBL document CHEMBL4665646, “Mass Spectrometry-based Label-free Quantitative Proteomics To Study the Effect of 3PO Drug at Cellular Level” (2019):
Calls of active or inactive are those of the source. The calls are words filed in the database; no cut-off is given here.

Columns and labels:
EA.hy 926 [1] = experiment: Cytotoxicity against human EA.hy 926 cells assessed as inhibition of cell proliferation at 20 uM after 24 hrs by MTT assay; format: functional, cell-based
EA.hy 926 [2] = experiment: (§1) Antiinflammatory activity in TNFalpha-induced human EA.hy 926 cells assessed as decrease in ICMA-1 expression at 20 uM pretreated with compound for 1 hr followed by TNFalpha challenge and further incubated for 24 hrs by SYBR-green based qRT-PCR analysis; format: functional, cell-based; settings: time 25.0 hrs
EA.hy 926 [3] = experiment: Antiinflammatory activity in TNFalpha-induced human EA.hy 926 cells assessed as decrease in IL1B expression at 20 uM pretreated with compound for 1 hr followed by TNFalpha challenge and further incubated for 24 hrs by SYBR-green based qRT-PCR analysis; format: functional, cell-based; settings: time 25.0 hrs
EA.hy 926 [4] = experiment: Antiinflammatory activity in TNFalpha-induced human EA.hy 926 cells assessed as decrease in IL8 expression at 20 uM pretreated with compound for 1 hr followed by TNFalpha challenge and further incubated for 24 hrs by SYBR-green based qRT-PCR analysis; format: functional, cell-based; settings: time 25.0 hrs
EA.hy 926 [5] = experiment: as §1, with “HLA-A” for “ICMA-1”, “expression by measuring log2 fold change” for “expression”, “analysis (reference value: 1.56)” for “analysis”; format: functional; settings: time 25 hrs
EA.hy 926 [6] = experiment: as §1, with “SOD-2” for “ICMA-1”, “expression by measuring log2 fold change” for “expression”, “analysis (reference value: 2.69)” for “analysis”; format: functional; settings: time 25 hrs
EA.hy 926 [7] = experiment: Antiinflammatory activity in TNFalpha-induced human EA.hy 926 cells assessed as decrease in ICAM-1 expression by measuring log2 fold change at 20 uM pretreated with compound for 1 hr followed by TNFalpha challenge and further incubated for 24 hrs by SYBR-green based qRT-PCR analysis; format: functional; settings: time 25 hrs

## O=C(/C=C/c1cccnc1)c1ccncc1
EA.hy 926 [1]
  inhibition: Active
EA.hy 926 [2]
  Activity: Active
EA.hy 926 [3]
  Activity: Active
EA.hy 926 [4]
  Activity: Active
EA.hy 926 [5]
  log2FC: -0.75
EA.hy 926 [6]
  log2FC: -0.53
EA.hy 926 [7]
  log2FC: -0.47
